Reference: the Biogen ADME set (Fang et al. 2023)
Converted amounts (≈) assume the structure as drawn.

Details: for aqueous solubility: pH 6.8

SMILES | MDR1-MDCK efflux ratio | intrinsic clearance, human liver microsomes [mL/min/kg] | intrinsic clearance, rat liver microsomes [mL/min/kg] | aqueous solubility [µg/mL] | fraction unbound, human plasma | fraction unbound, rat plasma
O=C(CCc1cccs1)Nc1ccc(N2CCCC2)cn1 |  |  |  | 1.18 (≈ 3.91 µM) |  | 
CCNC(=O)N1CCC(c2nc(-c3ccccc3)no2)CC1 | 0.841 | ≤ 4.74 | 44.8 | 52.8 (≈ 176 µM) |  | 
CC(C)c1noc2nc(C3CC3)cc(C(=O)N3CC[C@H](N)C3)c12 | 128 | ≤ 4.74 | ≤ 10.7 | 34.1 (≈ 108 µM) |  | 
COc1cc(OC)c(OC)cc1CNC(C)(C)C | 4.78 | ≤ 4.74 | 110 |  |  | 
O=S(=O)(c1cccc2c(O)nccc12)N1CCCNCC1 | 8.23 | ≤ 4.74 | 191 |  | 0.708 | 0.979
COc1ccccc1-n1ncc2c(=O)[nH]c(SC(C)c3ccccc3)nc21 (configuration not stated) |  | 224 | 1180 |  |  | 
O=C(C1CCCN(c2ccc(Cl)nn2)C1)N1CCc2ccccc2C1 (configuration not stated) |  | 125 | 1650 | 49.8 (≈ 139 µM) |  | 
NC1(c2noc(-c3cccnc3)n2)CCCCCC1 |  | ≤ 4.74 | 444 |  |  | 
CCCS(=O)(=O)c1nc(NC2CC2)cc(-c2ccc3c(ccn3C3CC(C)(C)NC(C)(C)C3)c2)n1 | 34.9 | 51.1 | 123 |  |  | 
c1ccc(-c2noc(Cn3ccnc3)n2)nc1 | 1.44 | ≤ 4.74 | ≤ 10.7 |  |  | 
O=C(Nc1ccc2sccc2c1)N1CCCN(C(=O)Oc2ccccc2)CC1 | 1.31 | 78.3 | 765 | 37.9 (≈ 95.7 µM) |  | 
O=c1c2cccc(C(F)(F)F)c2ncn1C1CCCC1 | 0.528 | 115 | 317 |  |  | 
Cc1cc(Cl)c(OCCCN2CCNCC2)c(Br)c1 |  | ≤ 4.74 | 461 | 36.9 (≈ 106 µM) |  | 
CC(=O)N1CCCN(C(=O)Cc2csc(C(C)C)n2)CC1 | 20.4 | ≤ 4.74 | 33.4 | 55.1 (≈ 178 µM) |  | 
N#Cc1ccc(OCCn2cccn2)cc1 | 0.584 | 6.93 | ≤ 10.7 | 39.8 (≈ 187 µM) |  | 
Oc1cncc(/C=C/c2nc(-c3ccncc3)no2)c1 |  | 31.8 | 239 |  |  | 
O=C(Nc1nc(-c2cccnc2)cs1)C1CCCCC1 | 0.497 |  |  | 0.21 (≈ 0.731 µM) |  | 
Cn1cc(-c2nc(C(F)(F)F)c[nH]2)cn1 |  |  |  | 40.2 (≈ 186 µM) |  | 
O=S(=O)(NCC1C2CC3CC(C2)CC1C3)C1CCOCC1 (configuration not stated) |  |  |  | 58.2 (≈ 186 µM) |  | 
O=c1cc(-c2cc(F)c(Cl)nc2Cl)[nH]c2c(-c3ccccc3)c(C(F)(F)F)nn12 | 1.91 | ≤ 4.74 | 19.4 |  |  | 
O=c1c2sccc2nc2n1CCN(Cc1cc(F)ccc1F)CC2 | 0.463 | 121 | 2180 |  |  | 
N#CCCN(c1ncnc2sccc12)C1CC1 | 0.714 | 11 | 231 | 39.8 (≈ 163 µM) |  | 
Cc1ccnc(N2CCC(OCC3CCCC3)CC2)n1 | 0.515 | 108 | 5910 |  |  | 
Cn1ncc2c(N3CCN(c4ccc(Cl)c(Cl)c4)CC3)ncnc21 |  |  |  | 0.13 (≈ 0.358 µM) |  | 
Cc1cnn(CCNC(=O)C2(Cn3cccn3)CC2)c1 | 6.11 | 10.2 | 108 |  |  | 
CC(=O)c1ccc2c(c1)CCN(CCC1OCCO1)CC2 | 0.527 | 8.3 | 56.2 |  |  | 
Cc1ccc(F)c(N(C#N)Cc2nccn2C(F)F)c1 | 0.613 | 19.9 | 225 | 45.1 (≈ 161 µM) |  | 

Next, values leading:

MDR1-MDCK efflux ratio | intrinsic clearance, human liver microsomes [mL/min/kg] | intrinsic clearance, rat liver microsomes [mL/min/kg] | aqueous solubility [µg/mL] | fraction unbound, human plasma | fraction unbound, rat plasma | SMILES
1.12 | ≤ 4.74 | ≤ 10.7 |  |  |  | CC(=O)NCc1cc2n(n1)CCN(C1Cc3ccccc3C1)C2
0.835 | ≤ 4.74 |  |  | 0.769 |  | CN(C(=O)c1cc(N2CCNC2=O)ccc1F)C1CCNC1 (configuration not stated)
0.638 | 53.8 | 632 | 14.7 (≈ 47.6 µM) |  |  | CCCn1c(=O)n(Cc2ccc(C#N)cc2F)c2ccccc21
1.01 | 41.9 | 300 | 44.7 (≈ 140 µM) |  |  | O=C(CCc1ccc2c(c1)OCO2)Nc1cccc2cnccc12
0.634 | ≤ 4.74 | 30.1 |  |  |  | N#Cc1c(F)cccc1Oc1cccnc1
 | 137 | 569 |  |  |  | Cc1ccnc(NC(=O)c2ccnc(C)n2)c1
 | 13.7 | 270 |  |  |  | Cc1cc(CN(C)C(=O)C(=O)Nc2ccc(F)c(C)c2)no1
1.31 | 36.4 | 1900 | 52.3 (≈ 162 µM) | 0.154 | 0.0523 | C[C@@H]1CN(C(=O)CC(c2ccccc2)c2ccccc2)C[C@H](C)O1
 | 15.5 | 137 | 51.8 (≈ 165 µM) |  |  | COc1cc(CN(C)C(=O)Nc2cccc(C)c2C)ccc1O
0.998 | 223 | 1440 | 23 (≈ 52.4 µM) | 0.00655 | 0.0102 | CC(C)(C)C(=O)N1CCC(Cc2ccc(-c3cccs3)cc2)(C(=O)N2CCCC2)CC1
5.81 | 21.8 | 444 | 2.41 (≈ 5.66 µM) |  |  | CCOc1ccc(C(=O)Nc2cc(C(=O)OC)ccc2N2CCN(C(C)=O)CC2)cc1
5.12 | 10 | 190 | 19.2 (≈ 54.3 µM) |  |  | Cn1nc(-c2cn(Cc3ccc(CO)cc3)nn2)c2c(Cl)cccc21
28.4 | 4.94 | ≤ 10.7 | 56.8 (≈ 153 µM) |  |  | CN1CCC(NS(=O)(=O)C2CN(C(=O)c3cccc(Cl)c3)C2)CC1
34.6 | 36.6 | 597 |  |  |  | O=C(Cn1nc(Cc2ccccc2)c2ccccc2c1=O)NCCc1c[nH]cn1
0.566 | ≤ 4.74 | 4990 | 38.8 (≈ 133 µM) |  |  | CN(Cc1ccccc1)C(=O)c1ccc(-n2cccn2)nc1
 | 137 | 4160 |  |  |  | Cc1cc(C)c(S(=O)(=O)Nc2ccccc2)c(C)c1

MDR1-MDCK efflux ratio | intrinsic clearance, human liver microsomes [mL/min/kg] | intrinsic clearance, rat liver microsomes [mL/min/kg] | aqueous solubility [µg/mL] | fraction unbound, human plasma | fraction unbound, rat plasma | SMILES
 |  |  | 1.4 (≈ 4.25 µM) |  |  | CCN(c1ccccc1)S(=O)(=O)c1ccc(C(F)(F)F)cc1
28 | 76.7 | 557 | 4 (≈ 9.1 µM) |  |  | C=CCNC(=O)C1(Cc2ccc(-c3ccccc3)cc2)CCN(C(=O)c2cccnc2)CC1
7.02 | 108 | 631 | 70.6 (≈ 170 µM) |  |  | COc1cccc(CN2CCC(Cc3ccc(-c4cccnc4)cc3)(C(N)=O)CC2)c1
0.227 | 49.4 | 50.8 | 4.34 (≈ 15.4 µM) |  |  | COc1ccc(-c2nnc(-c3ccccc3)o2)cc1OC
0.685 | 10.2 | 38.5 | 1.3 (≈ 3.55 µM) |  |  | Cc1nc2ccc(NC(=O)c3sc(-c4ccccn4)nc3C)cc2s1
0.525 | 130 | 819 |  |  |  | CCOCCNC(=O)c1cccc(-c2cc(F)ccc2OC)c1
4.46 | ≤ 4.74 | 93.1 | 44.2 (≈ 140 µM) | 0.753 | 0.738 | O=C1NCCN(C(=O)c2ccncc2)C1c1ccccc1Cl (configuration not stated)
0.666 | 15 | 290 |  |  |  | CN(Cc1ccc(OC(F)(F)F)cc1)Cc1cn(C)nn1
9.61 | 131 | 1110 | 35.1 (≈ 78.9 µM) |  |  | CS(=O)(=O)N(CC(=O)Nc1ccccc1C(=O)NCc1ccco1)c1ccc(F)cc1
 | 21.3 | 133 | 20.2 (≈ 47.7 µM) |  |  | O=C(c1ccc(F)cc1)N1Cc2nc[nH]c2C[C@H]1c1nc(-c2ccc(Cl)cc2)no1
0.918 | 7.45 | 11.3 | 40.4 (≈ 155 µM) |  |  | Cc1ccc(C(=O)NCCc2csc(C)n2)cn1
 | 9.52 | 65.2 |  |  |  | CC(=O)Nc1ccc(C(=O)Nc2cc(-c3cccs3)ccc2N)cc1
0.927 | 9.98 | 69.2 | 46.5 (≈ 162 µM) |  |  | CN(C)C(=O)c1ccc(NC(=O)c2cccc(F)c2)cc1
 |  |  | 13.1 (≈ 51 µM) |  |  | Fc1cccc(Oc2nnnn2-c2ccccc2)c1
0.696 | 398 | 1800 |  |  |  | Cc1cc(F)ccc1-c1nc(CCn2c(C)nc3ccccc32)no1
0.455 |  |  | 0.4 (≈ 1.07 µM) |  |  | CC(C)(C)c1ccc(C(=O)Nc2ccc(C(=O)Nc3ccccc3)cc2)cc1
